ChEMBL document CHEMBL3046629, “Fungicidal Activities of 2-Methoxy-2-[2-(benzylideneaminooxymethyl)phenyl]-N-methylacetamide Derivatives” (2002)
Active and inactive are the calls of the source. The rule behind the calls is not given here.

Experiments:
Botrytis cinerea [1] = test: Fungicidal activity against Botryotinia fuckeliana assessed as cucumber gray mold disease control at 125 ppm treated on upper surface of leaf 24 hr before inoculation at 22 +/- 2 degC measured after 3 days by preventive manner; format: functional
[2] = test system: Pseudoperonospora cubensis; test: Fungicidal activity against Pseudoperonospora cubensis assessed as cucumber downy mildew disease control at 31.3 ppm foliar application 24 hr before inoculation onto the abaxial(treated) surface of leaf by preventive manner; format: functional
[3] = test system: Pseudoperonospora cubensis; test: Fungicidal activity against Pseudoperonospora cubensis assessed as cucumber downy mildew disease control at 2 ppm foliar application 24 hr before inoculation onto the adaxial(treated) surface of leaf by preventive manner; format: functional
[4] = test system: Pseudoperonospora cubensis; test: Fungicidal activity against Pseudoperonospora cubensis assessed as cucumber downy mildew disease control at 31.3 ppm foliar application 24 hr before inoculation onto the adaxial(treated) surface of leaf by preventive manner; format: functional
[5] = test system: Pseudoperonospora cubensis; test: Fungicidal activity against Pseudoperonospora cubensis assessed as cucumber downy mildew disease control at 2 ppm foliar application 24 hr after inoculation by curative manner; format: functional
[6] = test system: Pseudoperonospora cubensis; test: Fungicidal activity against Pseudoperonospora cubensis assessed as cucumber downy mildew disease control at 7.8 ppm foliar application 24 hr after inoculation by curative manner; format: functional
[7] = test system: Pseudoperonospora cubensis; test: Fungicidal activity against Pseudoperonospora cubensis assessed as cucumber downy mildew disease control at 125 ppm foliar application 24 hr before inoculation onto the abaxial(treated) surface of leaf by preventive manner; format: functional
[8] = test system: Pseudoperonospora cubensis; test: Fungicidal activity against Pseudoperonospora cubensis assessed as cucumber downy mildew disease control at 7.8 ppm foliar application 24 hr before inoculation onto the adaxial(treated) surface of leaf by preventive manner; format: functional
[9] = test system: Pseudoperonospora cubensis; test: Fungicidal activity against Pseudoperonospora cubensis assessed as cucumber downy mildew disease control at 125 ppm foliar application 24 hr before inoculation onto the adaxial(treated) surface of leaf by preventive manner; format: functional
[10] = test system: Pseudoperonospora cubensis; test: Fungicidal activity against Pseudoperonospora cubensis assessed as cucumber downy mildew disease control at 500 ppm foliar application 24 hr before inoculation onto the abaxial(treated) surface of leaf by preventive manner; format: functional
[11] = test system: Pseudoperonospora cubensis; test: Fungicidal activity against Pseudoperonospora cubensis assessed as cucumber downy mildew disease control at 31.3 ppm foliar application 24 hr after inoculation by curative manner; format: functional
[12] = test system: Pseudoperonospora cubensis; test: Fungicidal activity against Pseudoperonospora cubensis assessed as cucumber downy mildew disease control at 2 ppm foliar application 24 hr before inoculation onto the abaxial(treated) surface of leaf by preventive manner; format: functional
[13] = test system: Pseudoperonospora cubensis; test: Fungicidal activity against Pseudoperonospora cubensis assessed as cucumber downy mildew disease control at 7.8 ppm foliar application 24 hr before inoculation onto the abaxial(treated) surface of leaf by preventive manner; format: functional
[14] = test system: Pseudoperonospora cubensis; test: Fungicidal activity against Pseudoperonospora cubensis assessed as cucumber downy mildew disease control at 125 ppm foliar application 24 hr after inoculation by curative manner; format: functional
[15] = test system: Pseudoperonospora cubensis; test: Fungicidal activity against Pseudoperonospora cubensis assessed as cucumber downy mildew disease control at 500 ppm foliar application 24 hr before inoculation onto the adaxial(treated) surface of leaf by preventive manner; format: functional
Podosphaera fuliginea [16] = test: Fungicidal activity against Podosphaera fuliginea assessed as cucumber powdery mildew disease control at 500 ppm treated on upper surface of leaf 24 hr before inoculation at 23 +/- 2 degC measured after 10 days by preventive manner; format: functional
[17] = test system: Pseudoperonospora cubensis; test: Fungicidal activity against Pseudoperonospora cubensis assessed as cucumber downy mildew disease control in field at 100 ppm measured after 9 days of last application; format: functional
Podosphaera fuliginea [18] = test: Fungicidal activity against Podosphaera fuliginea assessed as cucumber powdery mildew disease control at 7.8 ppm treated on upper surface of leaf 24 hr before inoculation at 23 +/- 2 degC measured after 10 days by preventive manner; format: functional
Botrytis cinerea [19] = test: Fungicidal activity against Botryotinia fuckeliana assessed as cucumber gray mold disease control at 7.8 ppm treated on upper surface of leaf 24 hr before inoculation at 22 +/- 2 degC measured after 3 days by preventive manner; format: functional
[20] = test system: Pseudoperonospora cubensis; test: Fungicidal activity against Pseudoperonospora cubensis assessed as cucumber downy mildew disease control in field at 25 ppm measured after 9 days of last application; format: functional
Phytophthora infestans = test: Fungicidal activity against Phytophthora infestans assessed as potato late blight disease suppression in field at 100 ppm following 4 applications at 1 week intervals; format: functional, organism-based
Botrytis cinerea [21] = test: Fungicidal activity against Botryotinia fuckeliana assessed as cucumber gray mold disease control at 31.3 ppm treated on upper surface of leaf 24 hr before inoculation at 22 +/- 2 degC measured after 3 days by preventive manner; format: functional
Podosphaera fuliginea [22] = test: Fungicidal activity against Podosphaera fuliginea assessed as cucumber powdery mildew disease control at 31.3 ppm treated on upper surface of leaf 24 hr before inoculation at 23 +/- 2 degC measured after 10 days by preventive manner; format: functional
Botrytis cinerea [23] = test: Fungicidal activity against Botryotinia fuckeliana assessed as cucumber gray mold disease control at 500 ppm treated on upper surface of leaf 24 hr before inoculation at 22 +/- 2 degC measured after 3 days by preventive manner; format: functional
Podosphaera fuliginea [24] = test: Fungicidal activity against Podosphaera fuliginea assessed as cucumber powdery mildew disease control at 125 ppm treated on upper surface of leaf 24 hr before inoculation at 23 +/- 2 degC measured after 10 days by preventive manner; format: functional
[25] = test system: Pseudoperonospora cubensis; test: Fungicidal activity against Pseudoperonospora cubensis assessed as cucumber downy mildew disease control in field at 400 ppm measured after 9 days of last application; format: functional

Structure (SMILES) | Activity (Botrytis cinerea [1]) [%] | Activity [2] [%] | Activity [3] [%] | Activity [4] [%] | Activity [5] [%] | Activity [6] [%] | Activity [7] [%] | Activity [8] [%] | Activity [9] [%] | Activity [10] [%] | Activity [11] [%] | Activity [12] [%] | Activity [13] [%] | Activity [14] [%] | Activity [15] [%] | Activity [17] [%] | Activity (Podosphaera fuliginea [18]) [%] | Activity [20] [%] | also measured
CNC(=O)C(OC)c1ccccc1CO/N=C(/SC)c1ccc(OC)cc1 (racemic) | 50 | 40 | 90 | 100 | 25 | 25 | 64 | 99 | 100 | 90 | 65 | 25 | 25 | 95 | 96 |  |  |  | Activity (Podosphaera fuliginea [16]): <90%
CNC(=O)C(OC)c1ccccc1CO/N=C(\C)c1ccc(OC(F)F)cc1 (racemic) |  | 90 | 97 | 97 | 25 | 70 | 95 | 97 | 97 | 97 | 75 | 30 | 65 | 75 | 97 | 52.6 | 90 |  | Activity (Botrytis cinerea [19]): 50%
CNC(=O)C(OC)c1ccccc1CO/N=C(/SC)c1ccc(C(F)(F)F)cc1 (racemic) | 50 | 99 | 100 | 100 | 50 | 79 | 97 | 100 | 100 | 100 | 95 | 25 | 192 | 95 | 100 | 96.1 | 90 | 62.3 | inhibition (Phytophthora infestans): Active
CNC(=O)C(OC)c1ccccc1CO/N=C(/SC)c1ccc(OC(F)F)cc1 (racemic) |  | 80 | 100 | 100 | 30 | 40 | 100 | 100 | 100 | 100 | 65 | 60 | 80 | 78 | 100 | 81.6 |  | 71.4 | Activity (Botrytis cinerea [21]): 50%; Activity (Podosphaera fuliginea [22]): 90%
CNC(=O)C(OC)c1ccccc1COc1ccccc1 (racemic) |  |  |  |  |  |  |  |  |  | <90 |  |  |  |  | <90 |  |  |  | Activity (Botrytis cinerea [23]): <50%; Activity (Podosphaera fuliginea [24]): 90%
N#Cc1c(Cl)c(Cl)c(Cl)c(C#N)c1Cl [CHLOROTHALONIL] |  |  |  |  |  |  |  |  |  |  |  |  |  |  |  |  |  |  | Activity [25]: 55.3%
